Test results from patent US3935309A, “Synergistic combinations of phosphonomycin and bacteriostatic agents” (Merck & Co., Inc., priority 1974, dated 1976).

Tests used:
Escherichia coli 2017 = assay: Combined antibiotic therapy of Escherichia coli infection in mice (Example 5); assay type: in vivo, mice infected with Escherichia coli 2017
From the text: For example, using Escherichia coli 2017 as the infecting agent, sodium phosphonomycin was titrated alone and in the presence 5 and also in the presence of 0.5γtetracycline, while tetracycline was titrated alone and in the presence of 50γ, and also in the presence of 5γof sodium phosphonomycin. The two drugs were given by the subcutaneous route at separate sites on the ventral surface of the mouse. Such therapy was given only at the time of infection for the Escherichia coli and Pseudomonas aeruginosa tests but both at the time of infection and 6 hours later for all other tests. Infection was given intraperitoneally using broth suspensions of the test organism.

Staphylococcus aureus [1] = assay: criss-cross MIC method in nutrient broth (Example 2); assay type: cell-based; details: 37°C, 24 hours, two experiments on different days
Description: This method involved the simultaneous determination of the MIC (minimum inhibitory concentration) of each member of a pair of antibiotics and of combinations of the two in nutrient broth (NB) containing 0.2% yeast extract (YE). Serial two-fold dilutions were made throughout the experiment, and the starting inoculum consisted of approximately 25,000 cells/ml. of Staphylococcus aureus. Incubation was at 37°C. for 24 hours. Identical experiments were performed on two different days.

Proteus vulgaris = assay: MIC by two-fold serial broth dilution, alone and in combination (Example 1); assay type: cell-based; details: for MIC: Proteus vulgaris, read-out: MIC of 2nd Subst.
Description: (§1) The MIC (minimum inhibitory concentration) of phosphonomycin and each of the other antibiotics by itself was determined before the combination synergy experiment was begun, as follows: 2 ml. of a double strength solution in sterile distilled water of the highest strength to be tested (usually 1000γ) was added to a tube of double strength nutrient broth (NB) and mixed thoroughly. Two-fold serial dilutions were then made by transferring 2 ml. to the next tube (1 × NB) and so on for approximately 12 tubes. The tubes were inoculated with one drop each of a 1:50 dilution of a culture adjusted to a Lumetron 60 reading in NB + 0.2% yeast extract so as to provide a concentration of cells of approximately 25,000/ml. The tubes were then incubated at 37°C. and examined for growth at 24, 48 and 72 hours.
(§2) In the combination experiment, the MIC value obtained as described above was used as approximately the midpoint of the range to be tested for each of the two antibiotics of the combination. In a manner similar to the above, two-fold dilutions of the first substance in the combination were made except that 1.8 ml. volumes were used and a 2.2 × strength solution of both the antibiotic and the NB were made. The second antibiotic of the combination was added to duplicate rows of serial dilutions of the first substance as follows: 0.2 ml. in NB of a [formula] and a [formula] respectively, of the second substance was added to each tube in a row of serial dilutions of the first antibiotic. The final concentration that resulted enabled the determination of the effect of both MIC/4 and MIC/8 of each substance in the presence of from approximately 32 MIC to [formula] of the other. Inocula were added as in the initial single MIC experiment.

Streptococcus faecalis = assay: as above; assay type: cell-based; details: for MIC: Enterococcus faecalis, read-out: MIC of 2nd Subst.
Description: as §1, §2

pathogenic bacteria = assay: in vitro combination tests with various pathogens (general description); assay type: cell-based; details: various strains of pathogenic bacteria
From the text: Other experimental results have shown that novobiocin, chlortetracycline and sulfisoxazole are potentiated when combined with phosphonomycin and tested with various strains of pathogenic bacteria.

Staphylococcus aureus [2] = assay: MIC by two-fold serial broth dilution, alone and in combination (Example 1); assay type: cell-based
Description: as §1, §2

Pseudomonas aeruginosa = assay: as above; assay type: cell-based
Description: as §1, §2

[3] = chloramphenicol repeat test, 7 LD50, chloramphenicol titrated, phosphonomycin constant 5
[4] = chloramphenicol repeat test, 7 LD50, chloramphenicol titrated, phosphonomycin constant 50
[5] = chloramphenicol test 1, 9 LD50, chloramphenicol titrated, phosphonomycin constant 10
[6] = chloramphenicol test 1, 9 LD50, chloramphenicol titrated, phosphonomycin constant 100

O=C(N[C@H](CO)[C@H](O)c1ccc([N+](=O)[O-])cc1)C(Cl)Cl [Chloramphenicol]
% ED50 (Escherichia coli 2017; chloramphenicol repeat test, 7 LD50, alone): 100% | s.c. ED50 (Escherichia coli 2017; chloramphenicol repeat test, 7 LD50, alone, single dose at 0 hour, phosphonomycin as sodium salt): 120 µg | % ED50 (Escherichia coli 2017; [3]): 39% | s.c. ED50 (Escherichia coli 2017; [3]): 47 µg | % ED50 (Escherichia coli 2017; [4]): 17% | s.c. ED50 (Escherichia coli 2017; [4]): 20 µg | % ED50 (Escherichia coli 2017; chloramphenicol repeat test, 7 LD50, phosphonomycin titrated, chloramphenicol constant 5): 4% | % ED50 (Escherichia coli 2017; chloramphenicol repeat test, 7 LD50, phosphonomycin titrated, chloramphenicol constant 50): 42% | % ED50 (Escherichia coli 2017; chloramphenicol test 1, 9 LD50, alone): 100% | % ED50 (Escherichia coli 2017; [5]): 55% | s.c. ED50 (Escherichia coli 2017; [5]): 250 µg | % ED50 (Escherichia coli 2017; [6]): 24% | s.c. ED50 (Escherichia coli 2017; [6]): 107 µg | % ED50 (Escherichia coli 2017; chloramphenicol test 1, 9 LD50, phosphonomycin titrated, chloramphenicol constant 3): 1% | % ED50 (Escherichia coli 2017; chloramphenicol test 1, 9 LD50, phosphonomycin titrated, chloramphenicol constant 30): 7% | MIC (Staphylococcus aureus [1]; Staphylococcus aureus, 24 h, read-out: CLM MIC, alone): 7.8 µg/mL | CLM MIC (Staphylococcus aureus [1]; alone, listed as CLM): 3.9 µg/mL

CN(C)[C@@H]1C(O)=C(C(N)=O)C(=O)[C@@]2(O)C(O)=C3C(=O)c4c(O)ccc(Cl)c4[C@@](C)(O)[C@H]3C[C@@H]12 [Chlortetracycline]
MIC of 2nd Subst. in presence of ≤ MIC/4 of phosphonomycin (Proteus vulgaris): 0.25 | MIC (Proteus vulgaris): 2 µg/mL | MIC of 2nd Subst. in presence of ≤ MIC/4 of phosphonomycin (Streptococcus faecalis): 0.5 | MIC (Streptococcus faecalis): 0.5 µg/mL | potentiation when combined with phosphonomycin (pathogenic bacteria): potentiated

CC[C@H]1OC(=O)[C@H](C)[C@@H](O[C@H]2C[C@@](C)(OC)[C@@H](O)[C@H](C)O2)[C@H](C)[C@@H](O[C@@H]2O[C@H](C)C[C@H](N(C)C)[C@H]2O)[C@](C)(O)C[C@@H](C)C(=O)[C@H](C)[C@@H](O)[C@]1(C)O [Erythromycin]
MIC (Proteus vulgaris): 1000 µg/mL | MIC of 2nd Subst. in presence of phosphonomycin (Proteus vulgaris; in presence of MIC/2 instead of ≤ MIC/4): 500 µg/mL | MIC of 2nd Subst. in presence of ≤ MIC/4 of phosphonomycin (Staphylococcus aureus [2]): 2 | MIC (Staphylococcus aureus [2]; Staphylococcus aureus, read-out: MIC of 2nd Subst.): 8 µg/mL | MIC (Pseudomonas aeruginosa; Pseudomonas aeruginosa, read-out: MIC of 2nd Subst.): > 16000 µg/mL | MIC of 2nd Subst. in presence of ≤ MIC/4 of phosphonomycin (Pseudomonas aeruginosa; resistant growth present): 2000 | MIC of 2nd Subst. in presence of ≤ MIC/4 of phosphonomycin (Streptococcus faecalis): 16 | MIC (Streptococcus faecalis): 32 µg/mL
